{"source": "patent US20240207422A1", "about": "“NERVE TARGETING PEPTIDE CONJUGATES AND METHODS OF USE” (Alume Biosciences, Inc., priority 2022, published 2024)", "data": [{"test_system": "excised human nerve tissue", "assay": "Phage display selection on excised human nerve tissue (Nerve2, Nerve3), NextGen sequence counts", "type": "binding", "conditions": "unique sequence count (relative enrichment); peptides overlapping between Nerve2 and Plated Nerve2", "method": "Several m13 phage libraries were constructed expressing randomized variants of a parent peptide (QVPWEEPYYVVKKS-SGGL; SEQ ID NO: 576). In particular, the first 14 amino acids of the parent peptide were randomized using degenerate oligonucleotide synthesis to obtain a diverse set of peptides with a mutation rate of about 50% per residue.\nTo accomplish this, synthesis was carried out by the XXK codon design approach, where X is any base and K is G or T. To bias synthesis towards the parent sequence, synthesis was carried out at each X position with a mixture of about 70%-85% of the parent nucleotide and 15-30% of the remaining 3 nucleotides. The resulting molecules were inserted into fADL-1e (Antibody Design Laboratories), which is a type 3 phage display vector having a cloning site on the N-terminal side of the full-length gene III protein. The fusion proteins are directed to the periplasm by the PelB leader peptide, which is inserted in the vector […].\nCollectively, the phage display libraries used in the screens comprised about 600 million peptides, with sequencing analysis confirming a mutation rate of about 50% per residue.\nPhage libraries were independently processed, as follows, with five biological samples: two independent samples of excised human nerve tissue, one sample of a human nerve extract, and two independent samples of human muscle tissue, as follows:\nExcised Human Nerve Tissue: For each of the two independent samples, phage were processed through multiple cycles of selection, with representative phage being isolated and sequenced after each selection cycle. Specifically, for selection using human nerve tissue, a sample of […] tissue (2 mm by 2 mm) was washed prior to mixing and incubation with a phage library. After incubation, the mixture (containing mostly intact nerves with phage particles that had variable affinity for nerves) was centrifuged and the nerve pellet washed multiple times with PBS to remove phage with little or no affinity for nerve tissue. The pellet was homogenized and plated for titering and reamplification. Phage that were bound at each round were sequenced. NextGen sequencing of pools after 2, 3 and 4 rounds of selection were used to isolate candidate sequences that were further analyzed using bioinformatics.\nNextGen sequencing of pools after 2, 3 and 4 rounds of selection were used to isolate candidate sequences from each of the five samples. These five data sets were then analyzed as described in the next section.\nPeptide and vector sequences were translated starting at the first start codon in the nucleotide sequence. […] Trimmed peptides with identical sequences were combined and quantified according to their frequency (count).\nFollowing processing, an R script was written to merge the unique peptide sequences (with counts 6 or greater) from the 5 different data sets to analyze the overlap between nerve and muscle binding activity.\nFor the single Nerve2, Nerve3, and Plated Nerve2 (pn2) subsets, the number of counts for each group was set at a threshold giving rise to at least 100 peptides. […] As highlighted in yellow in FIG. 1B, the representative group also included 6 unique peptides overlapping between nerve2 and nerve3, 200 unique peptides overlapping between nerve2 and plated nerve2 (at least 60 counts), 4 unique peptides overlapping between nerve3 and plated nerve2. Finally, as highlighted in green in FIG. 1B, the representative group also included […] common to the nerve2, nerve3, and plated nerve2 sets.", "values": [{"substance": "107 (HVGWEQPYYVLRKS) [compound 107]", "Count": 112}, {"substance": "108 (DFATEERRYAVPKY) [compound 108]", "Count": 111}, {"substance": "109 (DVPLVKPHYGAVDS) [compound 109]", "Count": 111}, {"substance": "110 (QFPSEASHYVVRNS) [compound 110]", "Count": 111}, {"substance": "111 (HSRLHETSYVFNKP) [compound 111]", "Count": 110}, {"substance": "112 (HVQRQETDYAAKRI) [compound 112]", "Count": 110}, {"substance": "113 (NVLSEEPSSRDANV) [compound 113]", "Count": 110}, {"substance": "114 (HLPFEAPYYAVKRS) [compound 114]", "Count": 109}, {"substance": "115 (QLPGEEPTYVGSNS) [compound 115]", "Count": 109}, {"substance": "116 (EVPVGDLSYVGKKY) [compound 116]", "Count": 108}, {"substance": "117 (QFPLVQPNYLVEMP) [compound 117]", "Count": 108}, {"substance": "118 (HVPGQDSYNVVNKF) [compound 118]", "Count": 107}, {"substance": "119 (HVTYTEASVYKRTF) [compound 119]", "Count": 107}, {"substance": "120 (QLEWEEPHYAARKS) [compound 120]", "Count": 107}, {"substance": "121 (HYQSVKSYSVQKKI) [compound 121]", "Count": 105}, {"substance": "122 (QLTSAEASYVGKQS) [compound 122]", "Count": 105}, {"substance": "123 (HRPWEEPYYVAKQS) [compound 123]", "Count": 104}, {"substance": "124 (LFASENPYNVKSKS) [compound 124]", "Count": 103}, {"substance": "125 (SVPGEDPSQFGKTP) [compound 125]", "Count": 103}, {"substance": "126 (HVPSEEPYKLDEQS) [compound 126]", "Count": 102}, {"substance": "127 (QFRIEDSYDVANQS) [compound 127]", "Count": 102}, {"substance": "128 (QIYWHESNYLVTKS) [compound 128]", "Count": 102}, {"substance": "129 (HIPGDETSYVMKKY) [compound 129]", "Count": 100}, {"substance": "130 (QSLSEEPQYVVTPS) [compound 130]", "Count": 98}, {"substance": "131 (HILLEEPSNVLNKR) [compound 131]", "Count": 96}, {"substance": "132 (TLPVYVPYYVVNNT) [compound 132]", "Count": 96}, {"substance": "133 (HMRSEQPYYGGKVS) [compound 133]", "Count": 95}, {"substance": "134 (EVPRTERNFVVKNT) [compound 134]", "Count": 94}, {"substance": "135 (HGAWEETHYVVIQS) [compound 135]", "Count": 94}, {"substance": "136 (HGRSVESYDLVNKR) [compound 136]", "Count": 94}, {"substance": "137 (QVTWGEPQYVVYKS) [compound 137]", "Count": 94}, {"substance": "138 (QLPSGEPYSFVKES) [compound 138]", "Count": 93}, {"substance": "139 (DVPLEDTYYRVKKY) [compound 139]", "Count": 91}, {"substance": "140 (HVPFDKSSHLVKKY) [compound 140]", "Count": 90}, {"substance": "141 (QFAWDSPYSRGKKT) [compound 141]", "Count": 90}, {"substance": "142 (HVTWQQTKYVTNRS) [compound 142]", "Count": 89}, {"substance": "143 (RFPLEEPNYFQTKS) [compound 143]", "Count": 89}, {"substance": "144 (HVTWGKTYHLVTDS) [compound 144]", "Count": 88}, {"substance": "145 (LVPWEEPGYFQNTS) [compound 145]", "Count": 88}, {"substance": "146 (QYPREEPRHALKMS) [compound 146]", "Count": 88}, {"substance": "147 (NVTFEQSSYVVTSP) [compound 147]", "Count": 87}, {"substance": "148 (YVTSESPYYVHGQP) [compound 148]", "Count": 87}, {"substance": "149 (HVSGTKPYHLVKKS) [compound 149]", "Count": 86}, {"substance": "150 (EDVLHNAYHVETQF) [compound 150]", "Count": 85}, {"substance": "151 (QFAWEHRDYVLQRS) [compound 151]", "Count": 85}, {"substance": "152 (QVLWEERLYVVKNS) [compound 152]", "Count": 83}, {"substance": "153 (RSTWEQSYTIVKES) [compound 153]", "Count": 83}, {"substance": "154 (QMASKEPNYPVKNS) [compound 154]", "Count": 82}, {"substance": "155 (QNPAEEQYIVWNNS) [compound 155]", "Count": 82}, {"substance": "156 (SHPWEKQYDVFNNS) [compound 156]", "Count": 81}, {"substance": "157 (DVPWEEPYHVGNWR) [compound 157]", "Count": 80}, {"substance": "158 (HVASEQPYYGVNRP) [compound 158]", "Count": 80}, {"substance": "159 (HVLGEEPYYFVQHV) [compound 159]", "Count": 80}, {"substance": "160 (QEPWDEFSYNVNAL) [compound 160]", "Count": 80}, {"substance": "161 (QFRSGEAYVVVQTS) [compound 161]", "Count": 80}, {"substance": "162 (QNAFSKPYNGVKPS) [compound 162]", "Count": 80}, {"substance": "163 (QIESGEPYHDQKHP) [compound 163]", "Count": 79}, {"substance": "164 (QVRWPEQYYVVNMG) [compound 164]", "Count": 79}, {"substance": "165 (QYAREEPYYFMSYK) [compound 165]", "Count": 79}, {"substance": "166 (QIPCQSDHNVVTNC) [compound 166]", "Count": 78}, {"substance": "167 (DRLSDEPFKGMTHS) [compound 167]", "Count": 77}, {"substance": "168 (DVRWSDPHDRITKS) [compound 168]", "Count": 77}, {"substance": "169 (HLPWEGPEYLGKKS) [compound 169]", "Count": 77}, {"substance": "170 (HVPRDEPQSFVHRS) [compound 170]", "Count": 77}, {"substance": "171 (QFSSAEAYTVVNES) [compound 171]", "Count": 77}, {"substance": "172 (QIPSHSPYYALNSS) [compound 172]", "Count": 77}, {"substance": "173 (QQRLSASYQHVIKS) [compound 173]", "Count": 77}, {"substance": "174 (HFEGEDLYDRVKSR) [compound 174]", "Count": 76}, {"substance": "175 (HVTLEKPYDVATKS) [compound 175]", "Count": 76}, {"substance": "176 (QLPGEHPYYPIKKP) [compound 176]", "Count": 76}, {"substance": "177 (EALWYKHYYGVHKT) [compound 177]", "Count": 75}, {"substance": "178 (HVVRHYPPHFVHKS) [compound 178]", "Count": 75}, {"substance": "179 (LIPSEERSYAVINT) [compound 179]", "Count": 75}, {"substance": "180 (QHTHKQPFNVVKNY) [compound 180]", "Count": 75}, {"substance": "181 (VVPSQGTYHVGMTS) [compound 181]", "Count": 75}, {"substance": "182 (AVAWERPYYVVNHS) [compound 182]", "Count": 74}, {"substance": "183 (DVLLARTYYFGEFP) [compound 183]", "Count": 74}, {"substance": "184 (HFAGQEHLHFVEIS) [compound 184]", "Count": 74}, {"substance": "185 (LFAWAEANNVMKNS) [compound 185]", "Count": 74}, {"substance": "186 (SITNKQSVYVLKKS) [compound 186]", "Count": 73}, {"substance": "187 (HVQSANPYYDVRNS) [compound 187]", "Count": 72}, {"substance": "188 (HVSFDEPYYYVKKS) [compound 188]", "Count": 72}, {"substance": "189 (QDYWAKPSYIVKHS) [compound 189]", "Count": 72}, {"substance": "190 (QISLTEATLVVRKS) [compound 190]", "Count": 72}, {"substance": "191 (DVLWEEPRYFVNNS) [compound 191]", "Count": 71}, {"substance": "192 (HAHGQETYFLVKQS) [compound 192]", "Count": 71}, {"substance": "193 (HFALQDPYQVFKKT) [compound 193]", "Count": 71}, {"substance": "194 (QYPAERPTFDVTNA) [compound 194]", "Count": 71}, {"substance": "195 (SLPMEERYYAVRTA) [compound 195]", "Count": 71}, {"substance": "196 (DVEWEEPYYFLEKS) [compound 196]", "Count": 70}, {"substance": "197 (DVTWEEPYYAVKNS) [compound 197]", "Count": 69}, {"substance": "198 (EHPRVESVYLFPHT) [compound 198]", "Count": 69}, {"substance": "199 (HDSLDLHYYAMHES) [compound 199]", "Count": 69}, {"substance": "200 (QCPLEESCFDGQKS) [compound 200]", "Count": 69}, {"substance": "201 (QLTWPKQNYTMTQS) [compound 201]", "Count": 69}, {"substance": "202 (QLPWGAPYYVVKNS) [compound 202]", "Count": 68}, {"substance": "203 (RLPSEEPYTVAKRP) [compound 203]", "Count": 68}, {"substance": "204 (DFPWEQRSSTVKQY) [compound 204]", "Count": 67}, {"substance": "205 (DHTRVHPYYDFEIP) [compound 205]", "Count": 67}, {"substance": "206 (HATLQEPYFVVNHY) [compound 206]", "Count": 67}, {"substance": "207 (HDTWKGPYYPANKS) [compound 207]", "Count": 67}, {"substance": "208 (QLPSQEPYNVQRKS) [compound 208]", "Count": 67}, {"substance": "209 (SVTRYDLSTDVTKS) [compound 209]", "Count": 67}, {"substance": "210 (ESQWEQPSDVFKVV) [compound 210]", "Count": 66}]}]}
